Data taken from ChEMBL document CHEMBL4402592, “Targeting Endoplasmic Reticulum α-Glucosidase I with a Single-Dose Iminosugar Treatment Protects against Lethal Influenza and Dengue Virus Infections” (J Med Chem, 2020).
The source made the active and inactive calls. No cut-off for these calls is given here.

Legend:
dengue virus type 2 [1] = assay: (§1) Antiviral activity against Dengue virus 2 S221 infected in DENV antibody dependent enhancement AG129 mouse model assessed as reduction in TNF-lapha level at 750 mg/kg, po administered via gavage as two doses at 36 hrs and 52 hrs post infection measured at 60 hrs post-infection by electrochemiluminescence based method; assay type: functional, organism-based
dengue virus type 2 [2] = assay: as §1, with “IL-12/IL-23p40” for “TNF-lapha”; assay type: functional, organism-based
dengue virus type 2 [3] = assay: as §1, with “TNF-alpha” for “TNF-lapha”, “single dose” for “two doses”, “36” for “36 hrs and 52”; assay type: functional, organism-based
Cynomolgus monkey [4] = assay: In vivo inhibition of ERGlu1 in cynomolgus monkey assessed as increase in tri-glucosylated FOS at level in serum 128 to 258 mg/kg, po administered via gavage as single dose measured after 8 to 72 hrs by NP-HPLC analysis; assay type: functional, organism-based; details: Macaca fascicularis
dengue virus type 2 [5] = assay: Antiviral activity against Dengue virus 2 S221 infected in DENV antibody dependent enhancement AG129 mouse model assessed as reduction in viremia at 750 mg/kg, po administered via gavage as two doses at 36 hrs and 52 hrs post infection by qRT-PCR analysis; assay type: functional, organism-based
dengue virus type 2 [6] = assay: as §1, with “IL-10” for “TNF-lapha”; assay type: functional, organism-based
dengue virus type 2 [7] = assay: Antiviral activity against Dengue virus 2 S221 infected in DENV antibody dependent enhancement AG129 mouse model assessed as animal survival at 750 mg/kg, po administered via gavage as two doses at 16 and 32 hrs post infection (reference value: 4%); assay type: functional
dengue virus type 2 [8] = assay: as §1, with “IL-10” for “TNF-lapha”, “72” for “60”; assay type: functional, organism-based
dengue virus type 2 [9] = assay: Antiviral activity against Dengue virus 2 S221 infected in DENV antibody dependent enhancement AG129 mouse model assessed as animal survival at 750 mg/kg, po administered via gavage as two doses at 48 and 64 hrs post infection (reference value: 4%); assay type: functional
Influenza A virus [10] = assay: Antiviral activity against Influenza A virus (A/Texas/36/1991(H1N1)) infected in BALB/c mouse assessed as median death time at 250 mg/kg, po administered via gavage as three dosed at 8, 32 and 56 hrs post infection (reference value: 8 days); assay type: functional
dengue virus type 2 [11] = assay: as §1, with “IL10” for “TNF-lapha”, “single dose” for “two doses”, “36” for “36 hrs and 52”; assay type: functional, organism-based
Influenza A virus [12] = assay: Antiviral activity against Influenza A virus (A/Texas/36/1991(H1N1)) infected in BALB/c mouse assessed as median death time at 750 mg/kg, po administered via gavage as single dose at 8 hrs post infection; assay type: functional
Mus musculus [13] = assay: In vivo inhibition of ERGlu1 in BALB/c mouse assessed as increase in tri-glucosylated FOS level in lung at >250 mg/kg, po administered via gavage as single dose at 8 hrs post-infection and measured at 8 hrs post dose by NP-HPLC analysis; assay type: functional, organism-based
Influenza A virus [14] = assay: Antiviral activity against Influenza A virus (A/Texas/36/1991(H1N1)) infected in BALB/c mouse assessed as animal survival at 750 mg/kg, po administered via gavage as single dose at 24 hrs post infection (reference value: 0%); assay type: functional
dengue virus type 2 [15] = assay: Antiviral activity against Dengue virus 2 S221 infected in DENV antibody dependent enhancement AG129 mouse model assessed as animal survival at 375 mg/kg, po administered via gavage as two doses at 16 and 32 hrs post infection (reference value: 4%); assay type: functional
dengue virus type 2 [16] = assay: as §1, with “KC-GRO” for “TNF-lapha”, “single dose” for “two doses”, “36” for “36 hrs and 52”, “72” for “60”; assay type: functional, organism-based
Influenza A virus [17] = assay: Antiviral activity against Influenza A virus (A/Texas/36/1991(H1N1)) infected in BALB/c mouse assessed as median death time at 750 mg/kg, po administered via gavage as three dosed at 8, 32 and 56 hrs post infection (reference value: 8 days); assay type: functional
dengue virus type 2 [18] = assay: Antiviral activity against Dengue virus 2 S221 infected in DENV antibody dependent enhancement AG129 mouse model assessed as reduction in viremia by measuring foci of BHK21 cells containing DENV E at 750 mg/kg, po administered via gavage as two doses at 36 hrs and 52 hrs post infection measured after titration of compound treated infected animal serum with BHK21 cells by TrueBlue staining based focus forming assay; assay type: functional, organism-based
Mus musculus [19] = assay: In vivo inhibition of ERGlu1 in BALB/c mouse assessed as increase in tri-glucosylated FOS level in serum at 750 mg/kg, po administered via gavage as single dose and measured after 16 hrs by NP-HPLC analysis; assay type: functional, organism-based
Influenza A virus [20] = assay: Antiviral activity against Influenza A virus (A/Texas/36/1991(H1N1)) infected in BALB/c mouse assessed as increase in animal survival rate at 100 mg/kg, po administered via gavage starting at 8 hrs post-infection and continuing TID for 5 days; assay type: functional, organism-based
[21] = Toxicity in po dosed cynomolgus monkey assessed as maximum tolerated dose administered via gavage as single dose; assay type: organism-based, Macaca fascicularis; details: in vivo
dengue virus type 2 [22] = assay: as §1, with “KC-GRO” for “TNF-lapha”, “72” for “60”; assay type: functional, organism-based
Cynomolgus monkey [23] = assay: In vivo inhibition of ERGlu2 in cynomolgus monkey serum assessed as increase in mono-glucosylated FOS level in serum at 26 to 258 mg/kg, po administered via gavage as single dose and measured up to 72 hrs post-dose by NP-HPLC analysis; assay type: functional, organism-based; details: Macaca fascicularis
Influenza A virus [24] = assay: Antiviral activity against Influenza A virus (A/Texas/36/1991(H1N1)) infected in BALB/c mouse assessed as median death time at 250 mg/kg, po administered via gavage as two doses at 8 hrs and 32 hrs post infection (reference value: 9 days); assay type: functional
Mus musculus [25] = assay: In vivo inhibition of ERGlu2 in BALB/c mouse assessed as increase in mono-glucosylated FOS level in lung at 20 mg/kg, po administered via gavage starting at 8 hrs post-infection and continuing tid for 5 days and measured at 8 hrs post-final dose by NP-HPLC analysis; assay type: functional, organism-based
Influenza A virus [26] = assay: Antiviral activity against Influenza A virus (A/PA/10/2010 (H3N2)) infected in BALB/c mouse assessed as increase in animal survival rate at >250 mg/kg, po administered via gavage as single dose at 8 hrs post infection; assay type: functional, organism-based
dengue virus type 2 [27] = assay: Antiviral activity against Dengue virus 2 S221 infected in DENV antibody dependent enhancement AG129 mouse model assessed as animal survival at 375 mg/kg, po administered via gavage as two doses at 8 and 24 hrs post infection (reference value: 4%); assay type: functional
dengue virus type 2 [28] = assay: as §1, with “TNF-alpha” for “TNF-lapha”, “72” for “60”; assay type: functional, organism-based
dengue virus type 2 [29] = assay: as §1, with “TNF-alpha” for “TNF-lapha”, “single dose” for “two doses”, “36” for “36 hrs and 52”, “52” for “60”; assay type: functional, organism-based

## COCCCCCCCCCN1C[C@H](O)[C@@H](O)[C@H](O)[C@H]1CO.Cl
Dengue virus type 2 [1]
  Activity: Active
Dengue virus type 2 [2]
  Activity: Active
Dengue virus type 2 [3]
  Activity: Active
Cynomolgus monkey [4]
  inhibition: Active
Dengue virus type 2 [5]
  Activity: Active
Dengue virus type 2 [6]
  Activity: Active
Dengue virus type 2 [7]
  survival at 750 mg/kg: 100%
Dengue virus type 2 [8]
  Activity: Active
Dengue virus type 2 [9]
  survival at 750 mg/kg: 100%
Influenza A virus [10]
  Time: 9.5 days
Dengue virus type 2 [11]
  Activity: Active
Influenza A virus [12]
  Time: >14 days
Mus musculus [13]
  inhibition: Active
Influenza A virus [14]
  survival at 750 mg/kg: 30%
Dengue virus type 2 [15]
  survival at 375 mg/kg: 100%
Dengue virus type 2 [16]
  Activity: Active
Influenza A virus [17]
  Time: >14 days
Dengue virus type 2 [18]
  Activity: Active
Mus musculus [19]
  inhibition: Active
Influenza A virus [20]
  Activity: Active
[21]
  MTD: 258 mg/kg
Dengue virus type 2 [22]
  Activity: Active
Cynomolgus monkey [23]
  inhibition: Active
Influenza A virus [24]
  Time: >14 days
Mus musculus [25]
  inhibition: Active
Influenza A virus [26]
  Activity: Active
Dengue virus type 2 [27]
  survival at 375 mg/kg: 82%
Dengue virus type 2 [28]
  Activity: Active
Dengue virus type 2 [29]
  Activity: Active
